{"source": "patent US11136409B2", "about": "“Compositions and methods for identification, assessment, prevention, and treatment of AML using USP10 biomarkers and modulators” (Dana-Farber Cancer Institute, Inc., priority 2016, dated 2021)", "key": {"[1]": {"system": "Ba/F3-D835Y cells"}, "[2]": {"system": "wt FLT3-expressing leukemia cell lines", "test": "FLT3 protein in wt FLT3-expressing leukemia cell lines (immunoblot)", "type": "cell-based, human", "conditions": "approximately 23 hours of treatment", "method": "(§1) Protein lysate preparation, immunoblotting, and immunoprecipitation were carried out as previously described in Weisberg et al. (2002) Cancer Cell 1:433-443."}, "[3]": {"system": "Ba/F3-FLT3-ITD cells", "test": "Proliferation of Ba/F3-FLT3-ITD cells", "type": "cell-based, murine", "excerpt": "Nomo-1, P31-FUJ, and NB4 were obtained from Dr. Gary Gilliland. MV4, 11 cells were obtained from Dr. Anthony Letai. Hel, K562, THP, U937, TF-1 and K052 cells were purchased from the American Type Culture Collection (ATCC) (Manassas, Va., USA). […] Cell lines were submitted for cell line authentication and were authenticated within 6 months of manuscript preparation through cell line short tandem repeat (STR) profiling (DDC Medical, Fairfield, Ohio and Molecular Diagnostics Laboratory, Dana Farber Cancer Institute). […] PBMCs were generously provided by Dr. Steven Treon and Dr. Guang Yang.\nThe CellTiter-Glo® assay (Promega, Madison, Wis.) was used for proliferation studies and carried out according to manufacturer instructions. Cell viability is reported as percentage of control (untreated) cells, and error bars represent the standard error of the mean for each data point."}, "[4]": {"system": "MOLM13 and MOLM14 cells", "test": "p53 levels in AML cell lines (immunoblot)", "type": "cell-based, human", "excerpt": "(§2) The following antibodies were purchased from Cell Signaling Technology (Danvers, Mass.): total AKT (rabbit, #9272) and total p44/42 MAPK (Erk1/2) (3A7) (mouse, #9107) were used at 1:1000 dilution. Anti-GAPDH (D16H-11) XP (R) (rabbit mAb, #5174) was used at 1:1000 dilution. Beclin-1 (rabbit, #3738) was used at 1:1000. USP10 (D7A5) (rabbit, #8501) was used at 1:1000 dilution. P53 (rabbit, #9282) was used at 1:1000 dilution. β-tubulin (rabbit, #2146s) was used 1:1000.\nas §1"}, "[5]": {"system": "MOLM14 cells", "test": "Immunoblot of FLT3, Beclin-1, AKT, ERK1/ERK2 in MOLM14 cells", "type": "cell-based, human", "excerpt": "as §2\nFLT3/Flk-2 (C-20) (sc-479) and Ub (P4D1) (mouse, sc-8017) were purchased from Santa Cruz Biotechnology, Inc. (Dallas, Tex.) and used at 1:1000 dilution for immunoblotting. Anti-pTyr (mouse, clone 4G10) was purchased from Upstate Biotechnology (Lake Placid, N.Y.) and was used at 1:1000 dilution. Anti-HAUSP/USP7 antibody (rabbit, ab4080) and anti-ubiquitin antibody (rabbit, ab7780) were purchased from Abcam (Cambridge, Mass.) and used at 1:1000 dilution.\nas §1"}, "[6]": {"target": "USP7 (Homo sapiens, UniProt Q93009)", "sequence (Q93009 whole entry)": "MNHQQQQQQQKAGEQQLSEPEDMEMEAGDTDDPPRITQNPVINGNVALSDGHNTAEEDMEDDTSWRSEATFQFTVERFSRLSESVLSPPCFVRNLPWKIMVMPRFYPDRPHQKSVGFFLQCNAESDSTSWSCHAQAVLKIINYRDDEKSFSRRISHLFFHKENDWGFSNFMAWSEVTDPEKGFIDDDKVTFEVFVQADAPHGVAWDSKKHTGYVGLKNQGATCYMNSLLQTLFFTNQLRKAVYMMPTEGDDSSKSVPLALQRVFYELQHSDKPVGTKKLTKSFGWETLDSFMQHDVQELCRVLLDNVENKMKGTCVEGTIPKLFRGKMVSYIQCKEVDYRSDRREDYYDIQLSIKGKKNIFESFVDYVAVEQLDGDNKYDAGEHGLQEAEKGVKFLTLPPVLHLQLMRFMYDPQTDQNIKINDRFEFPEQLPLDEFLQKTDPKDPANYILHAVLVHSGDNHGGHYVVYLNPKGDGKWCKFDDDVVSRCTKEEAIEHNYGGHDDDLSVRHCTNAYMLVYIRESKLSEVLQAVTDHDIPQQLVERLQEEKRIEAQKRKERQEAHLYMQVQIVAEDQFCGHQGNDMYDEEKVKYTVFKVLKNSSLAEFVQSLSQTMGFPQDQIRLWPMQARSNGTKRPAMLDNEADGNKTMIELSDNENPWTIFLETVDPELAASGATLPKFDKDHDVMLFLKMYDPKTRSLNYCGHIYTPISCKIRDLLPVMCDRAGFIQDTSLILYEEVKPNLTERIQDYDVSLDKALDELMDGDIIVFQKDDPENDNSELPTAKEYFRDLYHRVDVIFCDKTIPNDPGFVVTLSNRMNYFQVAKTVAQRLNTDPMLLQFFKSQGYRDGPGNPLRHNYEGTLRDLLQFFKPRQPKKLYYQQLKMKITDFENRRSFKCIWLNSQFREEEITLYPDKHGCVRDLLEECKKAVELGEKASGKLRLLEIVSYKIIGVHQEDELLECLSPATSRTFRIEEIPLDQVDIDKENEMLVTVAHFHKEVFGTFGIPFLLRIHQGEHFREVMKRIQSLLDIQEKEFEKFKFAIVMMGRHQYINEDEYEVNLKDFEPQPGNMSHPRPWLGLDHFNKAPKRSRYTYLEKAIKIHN", "test": "MALDI TOF DUB assay with diubiquitin substrate", "type": "biochemical", "conditions": "diubiquitin as substrate, same assay as USP10", "method": "Thirty-one human DUBs were freshly diluted in the reaction buffer (40 mM Tris-HCl, pH 7.6, 5 mM DTT, 0.005% BSA) at different concentrations (see Table 10). […] 0.48 μl of di-ubiquitin topoisomers were added to the reaction mixture to initiate the reaction. The reaction was sealed and incubated for 30 min at room temperature and stopped by adding TFA to a final concentration of 2% (v/v).\n(§3) Mass spectrometry data was acquired on an UltrafleXtreme MALDI-TOF mass spectrometer (Bruker Daltonics) with Compass 1.3 control and processing software. The sample carrier was taught before each analysis to optimize and centre laser shooting. […] Samples were analysed in automatic mode (AutoXecute, Bruker Daltonics). […] An amount of 3,500 shots were summed up in “random walk” and with “large” smartbeam laser focus. Spectra were automatically calibrated on the ^15N-Ub m/z and processed using smoothing (Savitzky-Golay algorithm) and baseline subtraction (‘TopHat’) for reproducible peak annotation on non-resolved isotope distributions: one cycle, 0.2 m/z for the width. For area calculation, the complete isotopic distribution was taken into account. An in-house made script was used to report—^15N and mono-ubiquitin areas; plotting of graphs, calculation of standard deviation and coefficient of variation (%) were processed in Microsoft Excel."}, "[7]": {"system": "USP10", "test": "USP10 target engagement in cells, labeling with HA-Ub-VS", "type": "cell-based", "conditions": "lysates from live treated cells", "description": "Cells were harvested, washed with PBS, and lysed in 1% NP-40, 10% glycerol, 2% sodium orthovanadate, and HALT protease inhibitor cocktail (ThermoFisher). Lysate was diluted to 50 ug in 30 uL lysis buffer with 1% DTT and incubated on ice for 15 minutes. 0.25 ug HA-Ub-VS was added, and the sample was gently rocked at room temperature for 30 minutes, then denatured with LDS sample buffer."}, "[8]": {"system": "FLT3-ITD-positive AML primagraft cells", "test": "FLT3 immunoblot in ex vivo-treated AML primagraft cells", "type": "cell-based, human", "conditions": "21 hours of treatment; concentration of 20", "method": "as §1"}, "[9]": {"system": "panel of 33 recombinant DUB enzymes", "conditions": "10 μM compound; diubiquitin as substrate", "method": "[…] […] The enzymes were pre-incubated with the compounds for 30 min at room temperature at 10 μM final concentration. 0.48 μl of di-ubiquitin topoisomers were added to the reaction mixture to initiate the reaction. The reaction was sealed and incubated for 30 min at room temperature and stopped by adding TFA to a final concentration of 2% (v/v).\nas §3"}}, "data": [{"smiles": "CN(CCCNC(=O)c1ccc2nc3c(c(Cl)c2c1)CCCC3)Cc1ccccc1", "note": "[HBX19818, reference compound]", "values": [{"measurement": "Proliferation EC50", "setting": "[1]", "value": "single digit micromolar range"}, {"measurement": "FLT3 protein", "setting": "[2]", "value": "little to no impact"}, {"measurement": "Proliferation EC50", "setting": "[3]", "value": "single digit micromolar range"}, {"measurement": "p53 levels", "setting": "[4]", "value": "did not result in a decrease of p53 levels"}, {"measurement": "Protein levels of Beclin-1 and FLT3", "setting": "[5]; 20 μM", "value": "strongly decreased"}, {"measurement": "Expression of AKT and ERK1/ERK2 downstream of FLT3", "setting": "[5]; approximately 23 hours of treatment", "value": "unchanged"}, {"measurement": "IC50", "setting": "[6]", "value": 57, "unit": "µM"}, {"measurement": "Inhibitor concentration blocking USP10 labeling by HA-Ub-VS", "setting": "[7]", "value": "low micromolar range"}, {"measurement": "FLT3 levels via immunoblotting", "setting": "[8]", "value": "no trace of FLT3"}, {"measurement": "Inhibition of DUBs other than USP10", "setting": "[9]", "value": "≤ 20", "unit": "%"}]}]}
